Test results: patent publication EP0263202A1, “Inhibition of viral protease activity by peptide halomethyl ketones” (priority 1986, dated 1988)
Residues, ends and D or L forms follow the SMILES beside them.

How the values were obtained:
human HeLa-O cells = format: cell-based
Protocol: (§1) One assay, known as a viral cleavage assay, involves comparison of patterns of protein synthesis (as visualized by incorporation of labeled amino acids) in virus-infected HeLa cells grown in the presence and absence of a selected test compound. A second assay, known as a plaque inhibition assay, involves an assessment of the effects of test compounds upon the infectivity of virus in agar-overlaid cell cultures. Toxic effects of a test compound, if any, will also be observed during the incubation period of the plaque inhibition assay. Both assays are described in greater detail below.
When plaques in control cultures were large enough to be observed, yet still relatively discrete, all cultures were stained with 1% crystal violet. Plaques appeared as clear areas in a deep purple field of uninfected cells.

rhinovirus type 1A = test: plaque inhibition assay; format: cell-based, Human rhinovirus type 1A; details: HeLa cells, concentration at which activity was noted
Protocol: as §1
In this assay, cultured HeLa cells were grown to confluency in 60 mm plastic petri dishes. Each culture was then infected with approximately 300 plaque-forming units of virus. Human rhinovirus type 1A was used in the test reported below. The virus employed in this experiment was allowed to absorb to the cells for 30 minutes at 34.5°.
The compound tested was dissolved in ethanol at a concentration 100 times greater than the highest concentration to be tested. The resulting solution was then diluted 1:100 into a solution of McCoy's medium containing 5% heat-inactivated fetal calf serum and 0.38% agar. Two-fold dilutions were then made into agar medium. […]

subtilisin BPNʹ = details: ranking among a series of peptide chloromethyl ketones; cited from earlier work

For `CC(C)C[C@H](NC(=O)[C@H](CC(C)C)NC(=O)CNC(=O)[C@H](Cc1ccccc1)NC(=O)OCc1ccccc1)C(=O)CCl` [Z-Phe-Gly-Leu-LeuCH₂Cl, N-carbobenzoxy-L-phenylalanyl-L-glycyl-L-leucyl-L-leucine chloromethyl ketone] (HELM PEPTIDE1{[O=C(OCc1ccccc1)[*:2]].F.G.L.L.[ClC[*:1]]}$$$$V2.0), the “cytotoxicity first detected at a concentration” value (human HeLa-O cells) was “about 15 µg/mL” and the “Antiviral activity, as scored by 90% plaque reduction” value (rhinovirus type 1A) was 1 µg/mL.

For “acetyl-L-phenyl-alanyl-L-glycyl-L-alanyl-L-leucyl chloromethyl ketone (FGAL; HELM PEPTIDE1{[ac].F.G.A.L.[ClC[*:1]]}$$$$V2.0; SMILES CC(=O)N[C@@H](Cc1ccccc1)C(=O)NCC(=O)N[C@@H](C)C(=O)N[C@@H](CC(C)C)C(=O)CCl) [Ac-Phe-Gly-Ala-LeuCH₂Cl]”, the “inhibition of subtilisin BPNʹ” value (subtilisin BPNʹ) is listed as “fastest inhibitor”.
